EC50 data for 2 molecules are collected here from patent US20250017207A1 (priority 2021, published 2025).

Format in all cases: cell-based
In one assay the test system is Fusarium graminearum. Description: microbe, parasite or virus in culture. The note with it: 72 h, read-out: EC50 Value.
For another assay, the system named is Fusarium proliferatum. As to the kind of experiment: Petri plate test, inhibition of mycelial growth (NY/T 1156.2-2006). Conditions: 72 h, mycelial growth on PDA plates, 25° C., three days in darkness. The text has this: Certain mixture compositions according to the present invention may show a synergistic effect. This occurs whenever the action of an active ingredient combination is greater than the sum of the actions of the individual components. The combined toxicity of two agents can be evaluated by the Co-Toxicity Coefficient (CTC) according to the Sun-YP method (Yun-Pei, Sun. “Toxicity Index-An Improved Method of Comparing the Relative Toxicity of Insecticides.” Journal of Economic Entomology 1(1950):45-53.). A CTC value of less than 80 indicates an antagonistic effect, a CTC value of 80-120 indicates an additive effect, and a CTC value of greater than or equal to 120 indicates a synergistic effect.
Component A represents standard Al, and component B represents the component to be mixed with the standard Al. • ATI (Measured toxicity index of a mixture)=(Standard Al's EC50/Mixture's EC50)*100 • TTI (Theoretical toxicity index of a mixture)=(TIA*PA+TIB*PB)*100 • TIA (Toxicity index of component A)=the EC50 of component A/the EC50 of component A • PA: Percentage of component A in the mixture • TIB (Toxicity index of component B)=the EC50 of component A/the EC50 of component B • PB: Percentage of component B in the mixture […]

The next assay has as its system Gibberella fujikuroi. As to the kind of experiment: microbe, parasite or virus in culture. The note with it: Fusarium fujikuroi, 72 h, read-out: EC50 Value.

In brackets after ≈: the same amount, converted by molar mass.

As for `CCOC(=O)/C(C#N)=C(\N)c1ccccc1` [PHM, (Z)-ethyl 2-cyano-3-amino-3-phenylacrylate], the EC50 (as a rule, the concentration giving half of the maximal effect) in the assay with Fusarium graminearum was determined as 0.0307 µg/mL (≈ 0.142 µM); in the assay with Fusarium proliferatum it was 3.08 µg/mL; with Gibberella fujikuroi it was 0.197 µg/mL (≈ 0.91 µM).
Consider `O=C(N[C@@H]1CC[C@@H]1c1ccc(Cl)cc1Cl)c1cccnc1C(F)(F)F` [cylcobutrifluram, N-[(1,2 cis)-2-(2,4-dichlorophenyl)cyclobutyl]-2-(trifluoromethyl)pyridine-3-carboxamide], for which the EC50 with Fusarium graminearum amounted to 0.0222 µg/mL (≈ 0.057 µM); with Fusarium proliferatum it was 0.882 µg/mL; with Gibberella fujikuroi, 0.75 µg/mL (≈ 1.93 µM).
